Assay results taken from patent publication US4367287A, “Process of producing antibiotic AR-5 complex” (Schering Corporation, priority 1981, dated 1983).
Like-named read-outs stand apart in the source and are kept apart here.

How the values were obtained:
[1] = system: Antibiotic AR-5 Resistant strains; experiment: In vivo mouse protection test, Antibiotic AR-5 resistant strains; set-up: species or system male (Carworth CF-1) mice; settings: read-out: Mean PD50
Method: (§1) In vivo mouse protection tests were performed in male (Carworth CF-1) mice weighing 18-20 g each. Infection was with about 10^7 organisms per mouse or sufficient inocula to cause death of control groups 24 to 48 hours after infection. The infecting organisms included strains of Staphylococcus Enterococcus, β-hemolytic Streptococcus and E. coli.

Acute toxicity in mice = settings: mouse, in vivo, male CF-1 mice, survivors at 24 and 48 hours
Method: The acute toxicity determinations were carried out with groups of male (Carworth CF-1) mice weighing 18-20 g. LD50 values […] the dose that was lethal to 50% of the mice) were calculated by probit analysis based on the number of survivors at 24 and 48 hours after dosing.

[2] = system: Antibiotic AR-5 Sensitive strains; experiment: In vivo mouse protection test, Antibiotic AR-5 sensitive strains; set-up: species or system male (Carworth CF-1) mice; settings: for ED50: Mus musculus, Antibiotic AR-5 sensitive strains, number of strains averaged in parentheses, read-out: Mean PD50; for oral potency relative to erythromycin and rosaramicin (fold more potent): in vivo PD50, in general
Method: as §1

M. polytrota = experiment: Antibiotic susceptibility of producing strain; assay type: cell-based, Micromonospora polytrota; settings: for Growth in the presence of 50 mcg/ml antibiotic: M. polytrota; for sensitivity of M. polytrota: concentration not given
Method: Test antibiotics were dissolved in the appropriate solvent at a concentration based on an activity of 1000 mcg/ml. Stock solutions were diluted in sterile distilled water to a final concentration of 500 mcg/ml and filter sterilized ([…] filters, Millipore Corporation). To 10 ml of the sterile antibiotic solutions, 90 ml of melted agar consisting of yeast extract, 10 g; dextrose, 10 g; agar, 15 g; tap water, 1000 ml; […] cooled to 45° C. was added, and 20 ml of the resulting mixture was aseptically pipetted into sterile petri dishes (100×150 mm). The final concentration of each antibiotic in the agar was 50 mcg/ml.

[3] = Serum levels of the antibiotics; assay type: in vivo; settings: mice, rats and dogs
Method: The serum levels of the respective antibiotics were measured in mice, rats and dogs.

Compound `CCC1OC(=O)/C=C/C(C)C(OC2OC(C)CC(N(C)C)C2O)C(C)CC(C)C(=O)/C=C/C=C/C1COC1OC(C)C(O)C(OC)C1OC` (stereo not drawn) [B, 12,13-desepoxy AR-5 component 1] has an ED50 ([1]; po) of 100 mg/kg, an ED50 ([1]; sc) of 100 mg/kg and an LD50 (Acute toxicity in mice; ip) of 275 mg/kg. It also gave an LD50 (Acute toxicity in mice; iv) of 160 mg/kg, an ED50 ([2]; sc) of 2.5 mg/kg and an ED50 ([2]; oral) of 3.8 mg/kg. The “oral potency relative to erythromycin and rosaramicin (fold more potent)” value ([2]; oral) was 30-40 fold.

For `CCC[C@@H]1C[C@@H](C(=O)N[C@@H]([C@H]2O[C@H](SC)[C@H](O)[C@@H](O)[C@H]2O)[C@H](C)Cl)N(C)C1` [Clindamycin], the “Growth in the presence of 50 mcg/ml antibiotic” value (shortened to “Growth in the presence”) (M. polytrota) was “grows”.

In the case of `CN[C@@H]1[C@@H](O)[C@@H](O[C@@H]2[C@@H](O)[C@H](O[C@H]3OC(CN)=CC[C@H]3N)[C@@H](N)C[C@H]2N)OC[C@]1(C)O` [Sisomicin], the “Growth in the presence” value (M. polytrota) is reported as “grows”.

In the case of `O=C(N[C@H](CO)[C@H](O)c1ccc([N+](=O)[O-])cc1)C(Cl)Cl` [Chloramphenicol], the “sensitivity of M. polytrota” value (M. polytrota) is reported as “exhibits sensitivity”.

For Gentamicin, the “Growth in the presence” value (M. polytrota) was “grows”.

In the case of `CCC1OC(=O)/C=C/C(C)C(OC2OC(C)CC(N(C)C)C2O)C(C)CC(C)C(=O)/C=C/C2OC2C1COC1OC(C)C(O)C(OC)C1OC` (stereo not drawn) [A, Antibiotic AR-5 component 1], the ED50 ([1]; po) is reported as 100 mg/kg, the ED50 ([1]; sc) is reported as 100 mg/kg and the LD50 (Acute toxicity in mice; ip) is reported as 310 mg/kg. The LD50 (Acute toxicity in mice; iv) was 140 mg/kg, the “duration of therapeutic serum levels” value [3] was “produces therapeutic serum levels of greater duration” and the ED50 ([2]; sc) was 4 mg/kg. For the same compound, the ED50 ([2]; oral) was 4.1 mg/kg and the “oral potency relative to erythromycin and rosaramicin (fold more potent)” value ([2]; oral) was 30-40 fold.

For `CCC[C@@H]1C[C@@H](C(=O)N[C@@H]([C@H]2O[C@H](SC)[C@H](O)[C@@H](O)[C@H]2O)[C@@H](C)O)N(C)C1` [Lincomycin], the “Growth in the presence” value (M. polytrota) was “grows”.

For `CC[C@H]1OC(=O)[C@H](C)[C@@H](O[C@H]2C[C@@](C)(OC)[C@@H](O)[C@H](C)O2)[C@H](C)[C@@H](O[C@@H]2O[C@H](C)C[C@H](N(C)C)[C@H]2O)[C@](C)(O)C[C@@H](C)C(=O)[C@H](C)[C@@H](O)[C@]1(C)O` [E, Erythromycin, reference compound], the ED50 ([1]; po) was 400 mg/kg, the ED50 ([1]; sc) was 100 mg/kg and the LD50 (Acute toxicity in mice; ip) was 355 mg/kg. The LD50 (Acute toxicity in mice; iv) was 260 mg/kg, the ED50 ([2]; sc) was 13.3 mg/kg and the ED50 ([2]; oral) was 135 mg/kg.

`CC[C@H]1OC(=O)C[C@@H](O)[C@H](C)[C@@H](O[C@@H]2O[C@H](C)C[C@H](N(C)C)[C@H]2O)[C@@H](CC=O)C[C@@H](C)C(=O)/C=C/[C@]2(C)O[C@H]2[C@@H]1C` [F, Rosaramicin, reference compound] gave an ED50 ([1]; po) of 400 mg/kg, an ED50 ([1]; sc) of 100 mg/kg and an LD50 (Acute toxicity in mice; ip) of 260 mg/kg. For the same compound, the LD50 (Acute toxicity in mice; iv) was 175 mg/kg, the LD50 (Acute toxicity in mice; oral) was 1300 mg/kg and the “sensitivity of M. polytrota” value (M. polytrota) was “exhibits sensitivity”. For the same compound, the ED50 ([2]; sc) was 8.3 mg/kg and the ED50 ([2]; oral) was 181 mg/kg.

`CCC1OC(=O)/C=C/C(C)C(OC2OC(C)CC(N(C)C)C2O)C(C)CC(C)C(=O)/C=C/C2OC2C1(O)COC1OC(C)C(O)C(OC)C1OC` (stereo not drawn) [C, Antibiotic AR-5 component 2] showed an ED50 ([1]; po) of 100 mg/kg, an ED50 ([1]; sc) of 100 mg/kg and an LD50 (Acute toxicity in mice; ip) of 610 mg/kg. For the same compound, the LD50 (Acute toxicity in mice; iv) was 310 mg/kg, the “time of peak serum levels” value ([3]; versus the other antibiotics tested) was “produces peak serum levels earlier than any of the other antibiotics tested” and the ED50 ([2]; sc) was 5.1 mg/kg. It also gave an ED50 ([2]; oral) of 35.8 mg/kg.

With `NC[C@H]1O[C@H](O[C@H]2[C@H](O)[C@@H](O[C@H]3O[C@H](CO)[C@@H](O)[C@H](N)[C@H]3O)[C@H](N)C[C@@H]2N)[C@H](O)[C@@H](O)[C@@H]1O` [Kanamycin] the “Growth in the presence” value (M. polytrota) was “grows”.
